This test concerns the target human F508del-CFTR (Homo sapiens, UniProt P13569, DEL508-508). Kind of test: F508del-CFTR cell surface expression (corrector activity), DiscoveRx ß-galactosidase complementation chemiluminescence assay in recombinant U2OS cell line.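 For all read-outs here: U2OS cells co-expressing ProLink-tagged F508del-CFTR and a membrane-anchored enzyme acceptor, where more surface CFTR restores β-galactosidase activity measured by chemiluminescence.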 Particulars: for EC50: EC50, F508del-CFTR cell surface expression, U2OS cells, 16h compound incubation, geomean values; for Emax: U2OS, in relation to Emax of corrector lumacaftor (=100%), arithmetic mean values.

Structures are written as SMILES.

Data on 14 compounds can be found in patent publication US20240208992A1, “MACROCYCLES AS CFTR MODULATORS” (Idorsia Pharmaceuticals Ltd, priority 2021, published 2024).

Sequence of human F508del-CFTR (P13569 with tags, fused parts or gaps DEL508-508): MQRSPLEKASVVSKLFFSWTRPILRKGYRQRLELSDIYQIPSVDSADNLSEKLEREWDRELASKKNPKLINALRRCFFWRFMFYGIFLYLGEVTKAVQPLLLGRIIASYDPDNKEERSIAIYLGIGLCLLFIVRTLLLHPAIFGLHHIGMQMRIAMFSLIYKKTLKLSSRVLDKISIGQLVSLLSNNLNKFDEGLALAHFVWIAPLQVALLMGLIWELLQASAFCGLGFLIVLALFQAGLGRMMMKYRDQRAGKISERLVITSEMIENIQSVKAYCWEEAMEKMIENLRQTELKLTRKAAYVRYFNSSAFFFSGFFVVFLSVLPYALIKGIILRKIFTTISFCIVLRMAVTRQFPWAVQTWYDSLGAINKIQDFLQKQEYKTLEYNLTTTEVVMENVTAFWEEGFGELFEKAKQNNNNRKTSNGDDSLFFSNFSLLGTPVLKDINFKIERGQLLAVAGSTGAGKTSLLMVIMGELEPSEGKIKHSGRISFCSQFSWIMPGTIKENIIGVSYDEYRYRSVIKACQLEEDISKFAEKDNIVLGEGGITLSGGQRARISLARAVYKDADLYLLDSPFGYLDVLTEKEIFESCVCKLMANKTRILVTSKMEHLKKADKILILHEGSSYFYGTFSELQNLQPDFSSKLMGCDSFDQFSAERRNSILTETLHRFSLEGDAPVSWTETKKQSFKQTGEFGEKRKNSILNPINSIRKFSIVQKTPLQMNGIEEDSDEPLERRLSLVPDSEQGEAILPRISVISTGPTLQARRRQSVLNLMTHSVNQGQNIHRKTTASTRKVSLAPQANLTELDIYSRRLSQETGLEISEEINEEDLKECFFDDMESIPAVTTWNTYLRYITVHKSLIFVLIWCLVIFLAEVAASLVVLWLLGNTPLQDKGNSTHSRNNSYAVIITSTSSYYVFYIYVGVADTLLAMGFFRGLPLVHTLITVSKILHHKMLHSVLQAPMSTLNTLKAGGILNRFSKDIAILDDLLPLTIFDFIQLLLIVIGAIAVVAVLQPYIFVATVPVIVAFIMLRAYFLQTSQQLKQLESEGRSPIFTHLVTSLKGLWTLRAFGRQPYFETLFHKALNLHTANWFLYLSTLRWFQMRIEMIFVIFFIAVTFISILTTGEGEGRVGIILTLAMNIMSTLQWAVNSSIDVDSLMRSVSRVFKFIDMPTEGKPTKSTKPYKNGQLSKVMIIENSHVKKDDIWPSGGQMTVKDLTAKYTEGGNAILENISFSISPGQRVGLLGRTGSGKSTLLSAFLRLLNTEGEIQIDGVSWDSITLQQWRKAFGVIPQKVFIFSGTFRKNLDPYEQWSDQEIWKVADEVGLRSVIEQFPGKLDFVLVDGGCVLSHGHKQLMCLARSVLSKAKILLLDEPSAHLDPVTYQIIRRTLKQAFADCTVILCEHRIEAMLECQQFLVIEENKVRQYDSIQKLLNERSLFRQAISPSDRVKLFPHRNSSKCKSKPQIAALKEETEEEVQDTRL

`Cc1cc(CCNC(=O)[C@@H]2CC(=O)N(C)[C@@H](CC(C)C)C(=O)N3CCCC[C@@H]3C(=O)N[C@H](Cc3ccccc3)COc3ccc4nc(C)oc4c3C(=O)N2)on1` [Example 632, (8S,12S,18aR,21R)-21-benzyl-12-isobutyl-4,11-dimethyl-N-(2-(3-methylisoxazol-5-yl)ethyl)-6,10,13,19-tetraoxo-6,7,8,9,10,11,12,13,16,17,18,18a,19,20,21,22-hexadecahydro-15H-oxazolo[4′,5′:5,6]benzo[1,2-p]pyrido[2,1-f][1]oxa[4,7,10,14]tetraazacycloheptadecine-8-carboxamide]: the 50% effective concentration (EC50) stood at 0.927 µM and the Emax was 326%.

In the case of `CO[C@H]1C[C@]2(C1)C(=O)N[C@H](Cc1ccccc1)COc1ccc3ccccc3c1C(=O)N[C@H](C(=O)NCCc1cc(C)no1)CC(=O)N(C)[C@@H](CC(C)C)C(=O)N2C` [Example 633, (1r,3S,3′S,7′S,13′R)-13′-benzyl-7′-isobutyl-3-methoxy-6′,9′-dimethyl-N-(2-(3-methylisoxazol-5-yl)ethyl)-1′,5′,8′,11′-tetraoxo-2′,3′,4′,5′,6′,7′,8′,9′,11′,12′,13′,14′-dodecahydro-1′H-spiro[cyclobutane-1,10′-naphtho[1,2-p][1]oxa[4,7,10,14]tetraazacycloheptadecine]-3′-carboxamide], the EC50 worked out at 0.652 µM and the Emax worked out at 316%.

In the case of `Cc1noc2c3c(ccc12)OC[C@@H](Cc1ccccc1)NC(=O)[C@H]1CCCCN1C(=O)[C@H](CC(C)C)N(C)C(=O)C[C@@H](C(=O)NCCc1c(F)cccc1F)NC3=O` [Example 634, (8S,12S,18aR,21R)-21-benzyl-N-(2,6-difluorophenethyl)-12-isobutyl-3,11-dimethyl-6,10,13,19-tetraoxo-6,7,8,9,10,11,12,13,16,17,18,18a,19,20,21,22-hexadecahydro-15H-isoxazolo[4′,5′:5,6]benzo[1,2-p]pyrido[2,1-f][1]oxa[4,7,10,14]tetraazacycloheptadecine-8-carboxamide], the EC50 is 0.173 µM and the Emax was 178%.

For `Cc1noc2c3c(ccc12)OC[C@@H](Cc1ccccc1)NC(=O)[C@@H]1CCCCN1C(=O)[C@H](CC(C)C)N(C)C(=O)C[C@@H](C(=O)NCCc1c(F)cccc1F)NC3=O` [Example 635, (8S,12S,18aS,21R)-21-benzyl-N-(2,6-difluorophenethyl)-12-isobutyl-3,11-dimethyl-6,10,13,19-tetraoxo-6,7,8,9,10,11,12,13,16,17,18,18a,19,20,21,22-hexadecahydro-15H-isoxazolo[4′,5′:5,6]benzo[1,2-p]pyrido[2,1-f][1]oxa[4,7,10,14]tetraazacycloheptadecine-8-carboxamide], the EC50 is 0.404 µM and the Emax came to 112%.

Take `CC(C)C[C@H]1C(=O)N2CCCC[C@@H]2C(=O)N[C@H](Cc2ccccc2)COc2cnc3ccc(F)cc3c2C(=O)N[C@H](C(=O)NCCc2c(F)cccc2F)CC(=O)N1C` [Example 636, (9S,13S,19aR,22R)-22-benzyl-N-(2,6-difluorophenethyl)-5-fluoro-13-isobutyl-12-methyl-7,11,14,20-tetraoxo-7,8,9,10,11,12,13,14,17,18,19,19a,20,21,22,23-hexadecahydro-16H-pyrido[2′,1′:6,7][1]oxa[4,7,10,14]tetraazacycloheptadecino[17,16-c]quinoline-9-carboxamide]: the EC50 amounted to 0.091 µM and the Emax was found to be 276%.

Take `CC(C)C[C@H]1C(=O)N2CCCC[C@@H]2C(=O)N[C@H](Cc2ccccc2)COc2cnc3ccc(F)cc3c2C(=O)N[C@H](C(=O)NCCc2noc(C3CC3)n2)CC(=O)N1C` [Example 637, (9S,13S,19aR,22R)-22-benzyl-N-(2-(5-cyclopropyl-1,2,4-oxadiazol-3-yl)ethyl)-5-fluoro-13-isobutyl-12-methyl-7,11,14,20-tetraoxo-7,8,9,10,11,12,13,14,17,18,19,19a,20,21,22,23-hexadecahydro-16H-pyrido[2′,11:6,7][1]oxa[4,7,10,14]tetraazacycloheptadecino[17,16-c]quinoline-9-carboxamide]: the EC50 amounted to 0.106 µM and the Emax was found to be 300%.

For the compound `CC(C)C[C@H]1C(=O)N2CCCC[C@@H]2C(=O)N[C@H](Cc2ccccc2)COc2cnc3c(F)cccc3c2C(=O)N[C@H](C(=O)NCCc2cc(C3CC3)on2)CC(=O)N1C` [Example 638, (9S,13S,19aR,22R)-22-benzyl-N-(2-(5-cyclopropylisoxazol-3-yl)ethyl)-3-fluoro-13-isobutyl-12-methyl-7,11,14,20-tetraoxo-7,8,9,10,11,12,13,14,17,18,19,19a,20,21,22,23-hexadecahydro-16H-pyrido[2′,11:6,7][1]oxa[4,7,10,14]tetraazacycloheptadecino[17,16-c]quinoline-9-carboxamide], the EC50 was determined as 0.182 µM and the Emax stood at 297%.

For the compound `CC(C)C[C@H]1C(=O)N2CCCC[C@@H]2C(=O)N[C@H](Cc2ccccc2)COc2cnc3ccc(F)cc3c2C(=O)N[C@H](C(=O)NCCc2cc(C3CC3)on2)CC(=O)N1C` [Example 639, (9S,13S,19aR,22R)-22-benzyl-N-(2-(5-cyclopropylisoxazol-3-yl)ethyl)-5-fluoro-13-isobutyl-12-methyl-7,11,14,20-tetraoxo-7,8,9,10,11,12,13,14,17,18,19,19a,20,21,22,23-hexadecahydro-16H-pyrido[2′,1′:6,7][1]oxa[4,7,10,14]tetraazacycloheptadecino[17,16-c]quinoline-9-carboxamide], the EC50 was 0.173 µM and the Emax worked out at 305%.

For `CC(C)C[C@H]1C(=O)N2CCCC[C@@H]2C(=O)N[C@H](Cc2ccccc2)COc2cnc3ccc(F)cc3c2C(=O)N[C@H](C(=O)NCCc2cc(C3CC3)no2)CC(=O)N1C` [Example 640, (9S,13S,19aR,22R)-22-benzyl-N-(2-(3-cyclopropylisoxazol-5-yl)ethyl)-5-fluoro-13-isobutyl-12-methyl-7,11,14,20-tetraoxo-7,8,9,10,11,12,13,14,17,18,19,19a,20,21,22,23-hexadecahydro-16H-pyrido[2′,11:6,7][1]oxa[4,7,10,14]tetraazacycloheptadecino[17,16-c]quinoline-9-carboxamide], the EC50 worked out at 0.132 µM and the Emax worked out at 339%.

For the compound `CC(C)C[C@H]1C(=O)N2CCCC[C@@H]2C(=O)N[C@H](Cc2ccccc2)COc2cnc3ccc(F)cc3c2C(=O)N[C@H](C(=O)NCCc2nc(C3CC3)no2)CC(=O)N1C` [Example 641, (9S,13S,19aR,22R)-22-benzyl-N-(2-(3-cyclopropyl-1,2,4-oxadiazol-5-yl)ethyl)-5-fluoro-13-isobutyl-12-methyl-7,11,14,20-tetraoxo-7,8,9,10,11,12,13,14,17,18,19,19a,20,21,22,23-hexadecahydro-16H-pyrido[2′,1′:6,7][1]oxa[4,7,10,14]tetraazacycloheptadecino[17,16-c]quinoline-9-carboxamide], the concentration for a half-maximal effect (EC50) was 0.087 µM and the Emax came out at 305%.

For the compound `CC(C)C[C@H]1C(=O)N2CCCC[C@@H]2C(=O)N[C@H](Cc2ccccc2)COc2cnc3ccccc3c2C(=O)N[C@H](C(=O)NCCc2cc(C3CC3)no2)CC(=O)N1C` [Example 642, (9S,13S,19aR,22R)-22-benzyl-N-(2-(3-cyclopropylisoxazol-5-yl)ethyl)-13-isobutyl-12-methyl-7,11,14,20-tetraoxo-7,8,9,10,11,12,13,14,17,18,19,19a,20,21,22,23-hexadecahydro-16H-pyrido[2′,1′:6,7][1]oxa[4,7,10,14]tetraazacycloheptadecino[17,16-c]quinoline-9-carboxamide], the EC50 was determined as 0.168 µM and the Emax was 366%.

On to `CC(C)C[C@H]1C(=O)N2CCOC[C@@H]2C(=O)N[C@H](Cc2ccccc2)COc2cnc3ccc(F)cc3c2C(=O)N[C@H](C(=O)NCCc2cc(C3CC3)on2)CC(=O)N1C` [Example 643, (9S,13S,19aR,22R)-22-benzyl-N-(2-(5-cyclopropylisoxazol-3-yl)ethyl)-5-fluoro-13-isobutyl-12-methyl-7,11,14,20-tetraoxo-7,8,9,10,11,12,13,14,16,17,19,19a,20,21,22,23-hexadecahydro-[1,4]oxazino[3′,4′:6,7][1]oxa[4,7,10,14]tetraazacycloheptadecino[17,16-c]quinoline-9-carboxamide], for which the EC50 is 0.22 µM and the Emax came out at 270%.

Take `CC(C)C[C@H]1C(=O)N2CCOC[C@@H]2C(=O)N[C@H](Cc2ccccc2)COc2cnc3ccc(F)cc3c2C(=O)N[C@H](C(=O)NCCc2cc(C3CC3)no2)CC(=O)N1C` [Example 644, (9S,13S,19aR,22R)-22-benzyl-N-(2-(3-cyclopropylisoxazol-5-yl)ethyl)-5-fluoro-13-isobutyl-12-methyl-7,11,14,20-tetraoxo-7,8,9,10,11,12,13,14,16,17,19,19a,20,21,22,23-hexadecahydro-[1,4]oxazino[3′,4′:6,7][1]oxa[4,7,10,14]tetraazacycloheptadecino[17,16-c]quinoline-9-carboxamide]: the EC50 turned out to be 0.277 µM and the Emax came to 270%.

With `CC(C)C[C@H]1C(=O)N2CCOC[C@@H]2C(=O)N[C@H](Cc2ccccc2)COc2cnc3ccc(F)cc3c2C(=O)N[C@H](C(=O)NCCc2nc(C3CC3)no2)CC(=O)N1C` [Example 645, (9S,13S,19aR,22R)-22-benzyl-N-(2-(3-cyclopropyl-1,2,4-oxadiazol-5-yl)ethyl)-5-fluoro-13-isobutyl-12-methyl-7,11,14,20-tetraoxo-7,8,9,10,11,12,13,14,16,17,19,19a,20,21,22,23-hexadecahydro-[1,4]oxazino[3′,4′:6,7][1]oxa[4,7,10,14]tetraazacycloheptadecino[17,16-c]quinoline-9-carboxamide], the EC50 was determined as 0.289 µM and the Emax was 211%.
